Test results from article PMC6784148 (Toxins, 2019).
Read-outs that look alike come from different tables or passages of the source.

Key:
[1] = system: intestinal porcine epithelial cell line (IPEC-J2)
[2] = system: intestinal porcine epithelial cell line (IPEC-J2); experiment: cells; settings: Sus scrofa, IPEC-J2, 48 h
[3] = system: HepG2 cells; settings: up until a concentration of 100 µM; cited from earlier work
[4] = in vitro; settings: pig
[5] = system: rats; parameters: method as in PMID 9872769; settings: at levels of 0.05 and 0.1%; cited from earlier work
[6] = system: HCEC-1CT cells; parameters: method as in PMID 29248571; settings: after 48 h; cited from earlier work
[7] = system: HT29 cells; parameters: method as in PMID 29248571; settings: after 48 h; cited from earlier work
[8] = system: three different cancer cell lines; parameters: method as in PMID 1172201; settings: cited from earlier work
[9] = pigs; cited from earlier work
[10] = parameters: method as in PMID 24239892, PMID 22008903; settings: cited from earlier work
[11] = system: THP-1 monocytes; parameters: method as in doi:10.3920/WMJ2014.1861; settings: cited from earlier work
[12] = system: Caco-2 cells; parameters: method as in doi:10.3920/WMJ2014.1861; settings: 780 µM, 48 h of incubation; cited from earlier work
[13] = system: glucuronidation of DON in human liver microsomes; parameters: method as in PMID 31049613, PMID 29465119; settings: cited from earlier work

Molecule	Negative effects on IPEC-J2 in the tested concentration range [1]	IC50 ([2]; read-out: Relative IC50 value) [µM]	Relative IC50 value [1] [µg/kg]	Absolute IC50 value [1] [µg/kg]	other results
O=C(O)CC[N+](=O)[O-] [3-nitropropionic acid]	None				
Cc1cc(O)cc2oc(=O)c3c(O)cc(O)cc3c12 [Alternariol]		20.3	5232		Cell viability of HepG2 cells [3]: did not decrease in a concentration-dependent manner; viability [4]: ~50%; viability at 20 µM [4]: 76.3%; Cytotoxic effect on IPEC-J2 (in words) [1]: slight decrease in viability
CCC(=O)CCCCC[C@@H]1NC(=O)[C@H]2CCCCN2C(=O)[C@H]([C@@H](C)CC)NC(=O)[C@H](Cc2cn(OC)c3ccccc23)NC1=O [Apicidin]		0.49	306	324	IC50 ([2]; read-out: Absolute IC50 value): 0.52 µM; Toxic effects in rats [5]: leading to death
COC1=C(C2=C(OC)C(=O)c3cc4oc(C)cc(=O)c4c(O)c3C2=O)C(=O)c2c(cc3oc(C)cc(=O)c3c2O)C1=O [Aurofusarin]			5329	6766	IC50 ([1]; read-out: Absolute IC50 value): 11.9 µM; IC50 ([1]; read-out: Relative IC50 value): 9.34 µM; Concentration at which a significant decrease in viability starts [6]: 5 µM; Concentration at which a significant decrease in viability starts [7]: 5 µM
COC1=CC(=O)c2c(c(O)c3oc4cc(OC)cc(C)c4c(=O)c3c2O)C1=O [Bikaverin]		0.75	287	711	ED50 (cytotoxicity) [8]: 0.5 to 4.2 mg/L; ED50 (cytotoxicity) ([8]; µg/mL values expressed in µM): 1.31 to 10.99 µM; IC50 ([2]; read-out: Absolute IC50 value): 1.86 µM; Viability after applying higher concentrations [1]: did not further decrease below 50%
CC1=C[C@H]2O[C@@H]3[C@H](O)C[C@](C)([C@@]2(CO)[C@H](O)C1=O)[C@]31CO1 [Deoxynivalenol, reference compound]			557	756	Bioavailability after oral administration [9]: 98.6% ± 23.6%; IC50 ([1]; read-out: Absolute IC50 value): 2.55 µM; IC50 ([1]; read-out: Relative IC50 value): 1.88 µM
Cc1cc(O)c2c(c1)C(=O)c1cc(O)cc(O)c1C2=O [Emodin]		13.1	3537	5056	IC50 ([2]; read-out: Absolute IC50 value): 18.7 µM; Viability after applying higher concentrations [1]: did not further decrease below 50%; Viability at concentrations >50 µM [1]: did not further decrease
CC[C@H](C)[C@H]1C(=O)O[C@H](C(C)C)C(=O)N(C)[C@@H](C(C)C)C(=O)O[C@H](C(C)C)C(=O)N(C)[C@@H](C(C)C)C(=O)O[C@H](C(C)C)C(=O)N1C [Enniatin B1]		2.69	1759	2400	IC50 ([2]; read-out: Absolute IC50 value): 3.67 µM; Oral bioavailability [10]: high oral bioavailability
CC(C)[C@H]1C(=O)O[C@H](C(C)C)C(=O)N(C)[C@@H](C(C)C)C(=O)O[C@H](C(C)C)C(=O)N(C)[C@@H](C(C)C)C(=O)O[C@H](C(C)C)C(=O)N1C [Enniatin B]		3.49	2233	2079	IC50 ([2]; read-out: Absolute IC50 value): 3.25 µM; Viability after applying higher concentrations [1]: did not further decrease below 50%
C/C=C/[C@@H]1C=C[C@@H]2C[C@H](C)CC[C@H]2[C@]1(C)/C(O)=C1/C(=O)[C@H](CO)N(C)C1=O [Equisetin]			4120		Cytotoxic effect on IPEC-J2 (in words) [1]: slight decrease in viability; Cell viability ([1]; 20 µM): 64.0% (±7.6%); IC50 ([1]; read-out: Relative IC50 value): 11 µM
CN1C(=O)[C@]23CC4=CC=C[C@H](O)[C@H]4N2C(=O)[C@@]1(CO)SS3 [Gliotoxin]		0.63	206	209	IC50 ([2]; read-out: Absolute IC50 value): 0.64 µM
COc1c(C)c2c(c(O)c1C/C=C(\C)CCC(=O)O)C(=O)OC2 [Mycophenolic Acid, Mycophenolic acid]		0.543	170		Effect in THP-1 monocytes [11]: no effect; Decrease of mitochondrial activity [12]: 45%; viability [4]: ≥ 66%; Abrupt decreased viability [1]: 26.1% ± 12.1%; Cytotoxic effect on IPEC-J2 (in words) [1]: slight decrease in viability; Viability at concentrations from 2.5 to 150 µM [1]: no further loss in viability; IC50 ([1]; read-out: Relative IC50 value): 0.53 µM
O=C1C=C2C(=CCOC2O)O1 (stereo not shown) [Patulin]		3.18	490	495	IC50 ([2]; read-out: Absolute IC50 value): 3.21 µM
COc1cc(O)c2c(O)c3c(=O)cc(C)oc3cc2c1 [Rubrofusarin]		21.5	5865		viability at 50 µM [4]: 64 ± 8.7%; Cytotoxic effect on IPEC-J2 (in words) [1]: slight decrease in viability
COc1cc(O)c2c(=O)oc3cc(O)cc(C)c3c2c1 [alternariol monomethyl ether]	None				
O=C1N[C@@H](Cc2c[nH]c3ccccc23)C(=O)N2CCC[C@@H]12 [brevianamid F]	None				
CC1(C)CCC[C@]2(C)[C@@H]3[C@H]1[C@@H](O)[C@@]2(C)C[C@H]3O [culmorin]	None				Cytotoxic effect on IPEC-J2 (in words) [1]: no cytotoxic effect; Effect on glucuronidation of DON [13]: able to inhibit the glucuronidation of DON
O=C1N[C@@H](Cc2ccc(O)cc2)C(=O)N2CCC[C@@H]12 [cyclo-(L-Pro-L-Tyr)]	None				Cytotoxic effect on IPEC-J2 (in words) [1]: non-cytotoxic
CC(C)[C@@H]1NC(=O)[C@@H]2CCCN2C1=O [cyclo-(L-Pro-L-Val)]	None				
CCCCc1ccc(C(=O)O)nc1 [fusaric acid]	None				
O=c1cc(CO)occ1O [kojic acid]	None				
O=c1cc(O)c1=O [moniliformin]	None				
C=CC(C)(C)[C@@]12C[C@H]3C(=O)N/C(=C/c4c[nH]cn4)C(=O)N3[C@@H]1Nc1ccccc12 [roquefortine C]	None				
CC(C)C[C@@H]1NC(=O)[C@H](C)N(C)C(=O)CNC(=O)/C(=C/c2ccccc2)N(C)C1=O [tentoxin]	None				
OCCc1c[nH]c2ccccc12 [tryptophol]	None				
Beauvericin			1756	1905	IC50 ([1]; read-out: Absolute IC50 value): 2.43 µM; IC50 ([1]; read-out: Relative IC50 value): 2.24 µM
Enniatin A			1964	2319	IC50 ([1]; read-out: Absolute IC50 value): 3.4 µM; IC50 ([1]; read-out: Relative IC50 value): 2.88 µM
Enniatin A1			2151	2772	IC50 ([1]; read-out: Absolute IC50 value): 4.15 µM; IC50 ([1]; read-out: Relative IC50 value): 3.22 µM
